Where two headings read alike, the source gives them in different places.
Assays:
[1] = system: PANC-1 (pancreas); test: Cell growth inhibition assay (SRB), PANC-1; type: cell-based, human; settings: Homo sapiens, SRB method, 96 hours incubation
Description: (§1) OVCAR-3, MCF-7, PC3, HepG2, A549, HT-29 and MKN-45 were grown in RPMI1640 medium (Invitrogen, Carlsbad, Calif.) supplemented with 10% fetal bovine serum (‘FBS’), 1 mM sodium pyruvate, 10 mM HEPES and 100 U/ml penicillin and […] streptomycin (‘P/S’). MDA-MB-231, HCT116, UMRC2, Caki-1, PANC-1 and HEK293 cells were maintained in Dulbecco's modified Eagle's medium (‘DMEM’, Invitrogen) supplemented with 10% FBS, P/S, 10 mM HEPES and 2 mM L-glutamine. HUVEC was maintained in M199 supplemented with basic fibroblast growth factor (‘bFGF’) […] and FBS 20%. All cells were incubated at 37° C. under humidified 5% CO2.
(§2) The growth inhibition of the substituted quinoxalin-piperazine compounds against a variety of human tumor cells was evaluated. The relative importance of particular substituent groups on the compounds was also studied. The substituted piperazine derivative compounds, prepared as described above, were tested, along with DMSO as a control.
(§3) The growth inhibition assay of various compounds against human tumor cell lines was performed using the Sulforhodamine B (‘SRB’) method (Skehan et al., J. National Cancer Institute, 1990, 82, 1107-1112). […] Triplicate wells were used for each treatment. The cells were incubated with the various compounds for 96 hours at 37° C. in a humidified 5% CO2 atmosphere. After 96-hour incubation, cells were fixed with 10% trichloroacetic acid (‘TCA’), incubated for 1 hour at 4° C., and washed 3 times with tap water. Subsequently cells were stained with 0.4% sulforhodamine B in 1% acetic acid for 30 minutes, washed 4 times with 1% acetic acid, and air-dried again. After 5 minutes agitation in 10 mM Tris solution, the absorbance of each well was measured at 530 nm using Benchmark Plus Microplate reader (Bio-Rad Laboratories, Hercules, Calif.).
(§4) To translate the OD530 values into the number of live cells in each well, the OD530 values were compared to those on standard OD530-versus-cell number curves generated for each cell line. The percent survival was calculated using the formula: % Survival=live cell number[test]/live cell number[control]×100
(§5) The IC50 values were calculated by non-linear regression analysis.

[2] = system: SK-OV-3 (ovary); test: Cell growth inhibition assay (SRB), SK-OV-3; type: cell-based; settings: Homo sapiens, SRB method, 96 hours incubation
Description: as §1, §2, §3, §4, §5

[3] = system: MDA-MB-231 (breast); test: Cell growth inhibition assay (SRB), MDA-MB-231; type: cell-based, human; settings: Homo sapiens, SRB method, 96 hours incubation
Description: as §1, §2, §3, §4, §5

[4] = system: A549 (lung); test: Cell growth inhibition assay (SRB), A549; type: cell-based; settings: Homo sapiens, SRB method, 96 hours incubation
Description: as §1, §2, §3, §4, §5

[5] = system: UMRC2 (kidney); test: Cell growth inhibition assay (SRB), UMRC2; type: cell-based, human; settings: Homo sapiens, SRB method, 96 hours incubation
Description: as §1, §2, §3, §4, §5

[6] = system: HEK293 (human embryonic kidney); test: Cell growth inhibition assay (SRB), HEK293; type: cell-based; settings: SRB method, 96 hours incubation
Description: as §1, §2, §3, §4, §5

[7] = system: HT-29 (colon); test: Cell growth inhibition assay (SRB), HT-29; type: cell-based; settings: Homo sapiens, SRB method, 96 hours incubation
Description: as §1, §2, §3, §4, §5

[8] = system: Huvec (human umbilical vein endothelial cells); test: Cell growth inhibition assay (SRB), Huvec; type: cell-based; settings: SRB method, 96 hours incubation
Description: as §1, §2, §3, §4, §5

[9] = system: PC3 (prostate); test: Cell growth inhibition assay (SRB), PC3; type: cell-based; settings: Homo sapiens; SRB method, 96 hours incubation, PC3 (prostate); read-out: IC50, PC3
Description: as §1, §2, §3, §4, §5

[10] = system: MKN-45 (stomach); test: Cell growth inhibition assay (SRB), MKN-45; type: cell-based; settings: Homo sapiens; SRB method, 96 hours incubation, MKN-45 (stomach); read-out: IC50, MKN-45
Description: as §1, §2, §3, §4, §5

[11] = system: MCF-7 (breast, hormone-dependent); test: Cell growth inhibition assay (SRB), MCF-7; type: cell-based; settings: Homo sapiens, MCF7; SRB method, 96 hours incubation, MCF-7 (breast, hormone-dependent); read-out: IC50, MCF-7
Description: as §1, §2, §3, §4, §5

[12] = system: HCT116 (colon); test: Cell growth inhibition assay (SRB), HCT116; type: cell-based; settings: Homo sapiens, HCT-116; SRB method, 96 hours incubation, HCT116 (colon); read-out: IC50, HCT116
Description: as §1, §2, §3, §4, §5

[13] = system: HepG2 (liver); test: Cell growth inhibition assay (SRB), HepG2; type: cell-based; settings: Homo sapiens; SRB method, 96 hours incubation, HepG2 (liver); read-out: IC50, HepG2
Description: as §1, §2, §3, §4, §5

[14] = system: Caki-1 (kidney); test: Cell growth inhibition assay (SRB), Caki-1; type: cell-based; settings: Homo sapiens; SRB method, 96 hours incubation, Caki-1 (kidney); read-out: IC50, Caki-1
Description: as §1, §2, §3, §4, §5

[15] = system: OVCAR-3 (ovary); test: Cell growth inhibition assay (SRB), OVCAR-3; type: cell-based; settings: Homo sapiens; SRB method, 96 hours incubation, OVCAR-3 (ovary); read-out: IC50, OVCAR-3
Description: as §1, §2, §3, §4, §5

[16] = PANC-1 (pancreas), read-out: IC50, PANC-1
[17] = SK-OV-3 (ovary), read-out: IC50, SK-OV-3
[18] = MDA-MB-231 (breast), read-out: IC50, MDA-MB-231
[19] = A549 (lung), read-out: IC50, A549
[20] = UMRC2 (kidney), read-out: IC50, UMRC2
[21] = HEK293 (human embryonic kidney), read-out: IC50, HEK293
[22] = HT-29 (colon), read-out: IC50, HT-29

Row | IC50 [9] [nM] | IC50 [1, 16] [µM] | IC50 [10] [nM] | IC50 [2, 17] [µM] | IC50 [11] [nM] | IC50 [12] [nM] | IC50 [3, 18] [µM] | IC50 [4, 19] [µM] | IC50 [13] [nM] | IC50 [7, 22] [µM] | IC50 [15] [nM] | Compound | IC50 [5, 20] [µM] | IC50 [6, 21] [µM] | IC50 [14] [nM] | IC50 ([8]; read-out: IC50, Huvec) [µM] | other results
1 | 620 | 0.17 | 430 | 0.5 | 450 | 450 | 0.13 | 0.59 | 410 | 0.46 | 310 | COc1nc2cc(Cl)ccc2nc1NC(=O)N1CCN(c2cc(C)cc(C)c2)CC1 [Compound 115, 1-[(6-Chloro-3-methoxyquinoxalin-2-yl)aminocarbonyl]-4-(3,5-dimethylphenyl)piperazine] | 0.11 | 0.5 | 310 | 0.52 | 
2 | 250 | 0.28 | 180 | 0.1 | 210 | 200 | 0.045 | 0.21 | 190 | 0.24 | 140 | COc1nc2cc(C)ccc2nc1NC(=O)N1CCN(c2cc(C)cc(C)c2)CC1 [Compound 136, 1-[(3-Methoxy-6-methylquinoxalin-2-yl)aminocarbonyl]-4-(3,5-dimethylphenyl)piperazine] | 0.057 | 0.24 | 130 | 0.15 | 
3 | 580 | 0.47 | 270 | 0.5 | 210 | 380 | 0.41 | 2.5 | 560 | 0.78 | 290 | COc1ccc2nc(NC(=O)N3CCN(c4cc(C)cc(C)c4)CC3)c(OC)nc2c1 [Compound 157, 1-[(3,6-Dimethoxyquinoxalin-2-yl)aminocarbonyl]-4-(3,5-dimethylphenyl)piperazine] | 0.27 | 0.53 | 300 | 0.15 | 

The next lines start with the molecule.

Row | Compound | IC50 [9] [nM] | IC50 [1, 16] [µM] | IC50 [10] [nM] | IC50 [2, 17] [µM] | IC50 [11] [nM] | IC50 [12] [nM] | IC50 [3, 18] [µM] | IC50 [4, 19] [µM] | IC50 [13] [nM] | IC50 [7, 22] [µM] | IC50 [15] [nM] | IC50 [5, 20] [µM] | IC50 [6, 21] [µM] | IC50 [14] [nM] | IC50 ([8]; read-out: IC50, Huvec) [µM] | other results
4 | COc1cccc(N2CCN(C(=O)Nc3nc4cc(C)ccc4nc3OC)CC2)c1 [Compound 45, 1-[(2-Methoxy-6-methylquinoxalin-3-yl)aminocarbonyl]-4-(3-methoxyphenyl)piperazine] |  |  |  |  |  |  |  |  |  |  |  |  |  |  |  | IC50 ([1]; PANC-1, read-out: Inhibition of cell growth (IC50, μM) by quinoxaline-piperazine compounds against human cancer cell lines: PANC-1): 1.31 µM; IC50 ([2]; SK-OV-3, read-out: Inhibition of cell growth (IC50, μM) by quinoxaline-piperazine compounds against human cancer cell lines: SK-OV-3): 1 µM; IC50 ([3]; MDA-MB-231, read-out: Inhibition of cell growth (IC50, μM) by quinoxaline-piperazine compounds against human cancer cell lines: MDA-MB-231): 0.27 µM; IC50 ([4]; A549, read-out: Inhibition of cell growth (IC50, μM) by quinoxaline-piperazine compounds against human cancer cell lines: A549): 0.25 µM; IC50 ([5]; UMRC2, read-out: Inhibition of cell growth (IC50, μM) by quinoxaline-piperazine compounds against human cancer cell lines: UMRC2): 0.45 µM; IC50 ([6]; Homo sapiens, Hek293, read-out: Inhibition of cell growth (IC50, μM) by quinoxaline-piperazine compounds against human cancer cell lines: Hek293): 0.5 µM; IC50 ([7]; HT-29, HT29, read-out: Inhibition of cell growth (IC50, μM) by quinoxaline-piperazine compounds against human cancer cell lines: HT29): 0.05 µM; IC50 ([8]; read-out: Inhibition of cell growth (IC50, μM) by quinoxaline-piperazine compounds against human cancer cell lines: Huvec): 0.5 µM
5 | COc1nc2cc(F)ccc2nc1NC(=O)N1CCN(c2cc(C)cc(C)c2)CC1 [Compound 94, 1-[(6-Fluoro-3-methoxyquinoxalin-2-yl)aminocarbonyl]-4-(3,5-dimethylphenyl)piperazine] | 700 | 0.56 | 250 | 0.5 | 360 | 400 | 0.41 | 0.42 | 480 | 0.89 | 290 | 0.32 | 0.57 | 330 | 0.16 | 

— patent publication US8598173B2, “1-[(6,7-substituted alkoxyquinoxalinyl)aminocarbonyl]-4-(hetero)arylpiperazine derivatives for treating tumors” (Korea Research Institute of Chemical Technology, priority 2004, dated 2013)
